Test results reported in US20240024261A1, “PHARMACEUTICAL COMPOSITION FOR IMPROVING COGNITIVE ABILITY OR ENHANCING MEMORY” (DR. RAYMOND LAB INC, priority 2020, published 2024).
Where “and” joins values, the source holds several entries; their conditions need not be identical. Identical values can stand only once.

What was measured:
[1] = test system: ICR mouse; experiment: Passive avoidance test in scopolamine-treated mice; type: in vivo; details: scopolamine i.p., mean ± standard error
Method: Each material prepared in the preparation example was prepared so that each may be orally administered to 7 experimental groups in the following and Table 1.
In the following Table 1, only the excipient prepared in the preparation examples was orally administered to a normal control group and a negative control group, respectively, scopolamine was administered to the remaining experimental groups (G2-G7) other than the normal control group (G1) in the behavioral experiment of Test Example 4 to cause cognitive function decline and a memory impairment effect, and then the behavior was observed.
After the test material (drug) of Test Example 3 was administered to each experimental group during the test, a passive avoidance test was performed, and change in mouse behavior was observed.
After each of the test materials was administered to each experimental group of Table 1 of Test Example 3, the passive avoidance test was performed on day 25 by the following procedure: • a) The object was put into an unlit white room of a conditioning box for the passive avoidance test, and then was adapted for 60 seconds. • b) A guillotine door was opened simultaneously with turning on a LED light of the white room, and the object was allowed to explore a dark room for 180 seconds for adaptation. • c) On the next day (day 26) also, the above process was performed and repeated once more, and the object was adapted so that it took around 30 seconds to enter the dark room after turning on the LED light. • d) After administering the drug 1 hour before learning on day 27, 4 mL/kg of Scopolamine which was dissolved at 0.25 mg/mL in a 0.9% saline solution was intraperitoneally administered to the objects of the remaining experimental groups other than the normal control group (G1), respectively, after 30 minutes, and the objects were allowed to stand for 30 minutes in the breeding box. • e) 30 minutes after administering Scopolamine, the objects were put into the unlit white room, the guillotine door was opened simultaneously with turning on the LED light after 10 seconds. When all of the four legs of the objects entered to the dark room, the guillotine door was closed, the time spent (latency time) was measured with a timer, and electrical stimulation was given at 0.5 mA for 3 seconds.

[2] = test system: acetylcholine; experiment: Acetylcholine content in hippocampus after passive avoidance test; type: in vivo, mouse; details: scopolamine, mean ± standard error
Method: (§1) On the next day of the end of the passive avoidance test, the test material was administered, and the objects were allowed to stand in a home cage for 30 minutes. Subsequently, Scopolamine was intraperitoneally administered at a dose of 1 mg/kg, and then the objects were allowed to stand in a home cage for 30 minutes.
(§2) A brain tissue was separately separated and stored at −70° C. until analysis.
A choline assay buffer (Biovision, CA, USA) was added to a hippocampal tissue of the separated brain, crushed, and then centrifuged to obtain a supernatant liquid, which was used in the test.
The amount of acetylcholine in the supernatant liquid was measured using a choline/acetylcholine quantification kit (Biovision, CA, USA).

[3] = test system: TNF-α; experiment: Inflammatory cytokine TNF-α in hippocampus (ELISA); type: in vivo, mouse; details: scopolamine, mean ± standard error
Method: as §1, §2
Inflammatory cytokine in a brain tissue was measured with a supernatant liquid obtained by adding a tissue protein extraction reagent (Biovision, CA, USA) to a brain tissue, crushing it, and centrifuging it, using an ELISA Kit (R&D System, MN, USA).

[4] = Body weight during the test; type: in vivo, mouse; details: mean ± standard error
Method: For all objects of each experimental group, when drug administration started, the body weight was measured twice a week from the start of administration until the end of the experiment, and was measured on the date of the final autopsy.

[5] = test system: ceramide; experiment: Ceramide content in brain tissue (forebrain); type: in vivo, mouse; details: for Ceramide content, N-acyl chain length C14 / Ceramide content, N-acyl chain length C16 / Ceramide content, N-acyl chain length C18 / Ceramide content, N-acyl chain length C20 / Ceramide content, N-acyl chain length C22 / Ceramide content, N-acyl chain length C24 / Ceramide content, N-acyl chain length C24:1 / Ceramide content, N-acyl chain length C26 / Ceramide content, N-acyl chain length C26:1 / Ceramide content, Total: Neuromide 100 mg/kg oral, scopolamine
Method: Two types of forebrain parts of experimental groups G1, G2, and G5 in the brain tissues separated above were secured, respectively.
The ceramide contents were analyzed therefrom, and the average and the deviation thereof were calculated.
At this time, the measurement of the ceramide content was performed by confirmation and quantitative method of ceramide commonly known to a person skilled in the art.

[6] = test system: sphingoid base; experiment: Sphingoid base content in brain tissue (forebrain); type: in vivo, mouse; design: Sphingoid base content, Sphingosine (SPN) / Sphingoid base content, S1P / Sphingoid base content, Sphinganine (Sa) / Sphingoid base content, Sa1P: unit not given here; details: for Sphingoid base content, S1P / Sphingoid base content, Sa1P / Sphingoid base content, Sphinganine (Sa) / Sphingoid base content, Sphingosine (SPN): Neuromide 100 mg/kg oral, scopolamine
Method: Two types of forebrain parts of the experimental groups G1, G2, and G5 in the separated brain tissue were secured, respectively, the contents of sphingoid base were analyzed, and the average and the deviation were calculated.
At this time, the measurement of contents of sphingosine (SPN), sphinganine (Sa), sphingosine-1-phosphate (S1P), and sphinganine-1-phosphate (Sa1P) which are sphingoid bases was performed by confirmation and quantitative method of sphingoid bases commonly known to a person skilled in the art.

[7] = Average of two forebrain samples
[8] = individual forebrain samples 5-2, 5-3, listed as Example 3

SMILES: CCCCCCCCCCCCCCCC(=O)NC(CO)CO [Neuromide, N-palmitoyl serinol]
- Passive avoidance test Time taken (latency time) ([1]; Neuromide 16 mg/kg oral): 22.3 s and 22.3 ± 3.6 s
- Passive avoidance test Time taken (latency time) ([1]; Neuromide 40 mg/kg oral): 31 s and 31 ± 8.9 s
- Passive avoidance test Time taken (latency time) ([1]; Neuromide 100 mg/kg oral): 35.7 s and 35.7 ± 11.5 s
- Acetylcholine ([2]; Neuromide 16 mg/kg oral): 1.1 Nmol/mg protein and 1.1 ± 0.1 Nmol/mg protein
- Acetylcholine ([2]; Neuromide 40 mg/kg oral): 1.1 Nmol/mg protein and 1.1 ± 0.3 Nmol/mg protein
- Acetylcholine ([2]; Neuromide 100 mg/kg oral): 1.5 Nmol/mg protein and 1.5 ± 0.2 Nmol/mg protein
- TNF-α ([3]; Neuromide 16 mg/kg oral): 211.5 pg/mg tissue protein and 211.5 ± 25.3 pg/mg tissue protein
- TNF-α ([3]; Neuromide 40 mg/kg oral): 196.2 pg/mg tissue protein and 196.2 ± 28.4 pg/mg tissue protein
- TNF-α ([3]; Neuromide 100 mg/kg oral): 189.2 pg/mg tissue protein and 189.2 ± 33 pg/mg tissue protein
- Weight ([4]; Neuromide 16 mg/kg oral, day 0 after administration): 34.9 ± 0.4 g
- Weight ([4]; Neuromide 16 mg/kg oral, day 1 after administration): 35.1 ± 0.4 g
- Weight ([4]; Neuromide 16 mg/kg oral, day 5 after administration): 35.9 ± 0.4 g
- Weight ([4]; Neuromide 16 mg/kg oral, day 8 after administration): 36.4 ± 0.5 g
- Weight ([4]; Neuromide 16 mg/kg oral, day 12 after administration): 36.4 ± 0.5 g
- Weight ([4]; Neuromide 16 mg/kg oral, day 15 after administration): 36.3 ± 0.6 g
- Weight ([4]; Neuromide 16 mg/kg oral, day 19 after administration): 37.3 ± 0.7 g
- Weight ([4]; Neuromide 16 mg/kg oral, day 22 after administration): 37.2 ± 1^ g
- Weight ([4]; Neuromide 16 mg/kg oral, day 26 after administration): 37.2 ± 0.8 g
- Weight ([4]; Neuromide 16 mg/kg oral, day 29 after administration): 37.1 ± 0.9 g
- Weight ([4]; Neuromide 40 mg/kg oral, day 0 after administration): 34.9 ± 0.4 g
- Weight ([4]; Neuromide 40 mg/kg oral, day 1 after administration): 35.5 ± 0.4 g
- Weight ([4]; Neuromide 40 mg/kg oral, day 5 after administration): 36 ± 0.3 g
- Weight ([4]; Neuromide 40 mg/kg oral, day 8 after administration): 36.7 ± 0.4 g
- Weight ([4]; Neuromide 40 mg/kg oral, day 12 after administration): 37.2 ± 0.4 g
- Weight ([4]; Neuromide 40 mg/kg oral, day 15 after administration): 37.5 ± 0.4 g
- Weight ([4]; Neuromide 40 mg/kg oral, day 19 after administration): 37.8 ± 0.4 g
- Weight ([4]; Neuromide 40 mg/kg oral, day 22 after administration): 38 ± 0.4 g
- Weight ([4]; Neuromide 40 mg/kg oral, day 26 after administration): 38.3 ± 0.4 g
- Weight ([4]; Neuromide 40 mg/kg oral, day 29 after administration): 37.9 ± 0.5 g
- Weight ([4]; Neuromide 100 mg/kg oral, day 0 after administration): 34.9 ± 0.4 g
- Weight ([4]; Neuromide 100 mg/kg oral, day 1 after administration): 35.3 ± 0.5 g
- Weight ([4]; Neuromide 100 mg/kg oral, day 5 after administration): 36.2 ± 0.5 g
- Weight ([4]; Neuromide 100 mg/kg oral, day 8 after administration): 36.7 ± 0.7 g
- Weight ([4]; Neuromide 100 mg/kg oral, day 12 after administration): 37.6 ± 0.5 g
- Weight ([4]; Neuromide 100 mg/kg oral, day 15 after administration): 38 ± 0.6 g
- Weight ([4]; Neuromide 100 mg/kg oral, day 19 after administration): 38.6 ± 0.6 g
- Weight ([4]; Neuromide 100 mg/kg oral, day 22 after administration): 38.4 ± 0.7 g
- Weight ([4]; Neuromide 100 mg/kg oral, day 26 after administration): 38.8 ± 0.6 g
- Weight ([4]; Neuromide 100 mg/kg oral, day 29 after administration): 38.9 ± 0.8 g
- Ceramide content, N-acyl chain length C14 [5, 7]: 2.71
- Ceramide content, N-acyl chain length C16 [5, 7]: 284.09
- Ceramide content, N-acyl chain length C18 [5, 7]: 3956.61
- Ceramide content, N-acyl chain length C20 [5, 7]: 92.88
- Ceramide content, N-acyl chain length C22 [5, 7]: 51.78
- Ceramide content, N-acyl chain length C24 [5, 7]: 68.30
- Ceramide content, N-acyl chain length C24:1 [5, 7]: 453.42
- Ceramide content, N-acyl chain length C26 [5, 7]: 11.09
- Ceramide content, N-acyl chain length C26:1 [5, 7]: 4.59
- Ceramide content, Total [5, 7]: 4925.46
- ceramide synthesis amount ([5]; forebrain, Neuromide 100 mg/kg): significantly increased
- Ceramide content, N-acyl chain length C14 [5, 8]: 2.92 and 2.50
- Ceramide content, N-acyl chain length C16 [5, 8]: 288.68 and 279.51
- Ceramide content, N-acyl chain length C18 [5, 8]: 3980.71 and 3932.52
- Ceramide content, N-acyl chain length C20 [5, 8]: 94.95 and 90.81
- Ceramide content, N-acyl chain length C22 [5, 8]: 60.05 and 43.51
- Ceramide content, N-acyl chain length C24 [5, 8]: 77.31 and 59.29
- Ceramide content, N-acyl chain length C24:1 [5, 8]: 498.48 and 408.35
- Ceramide content, N-acyl chain length C26 [5, 8]: 12.46 and 9.72
- Ceramide content, N-acyl chain length C26:1 [5, 8]: 4.78 and 4.40
- Ceramide content, Total [5, 8]: 5020.32 and 4830.60
- Sphingoid base content, S1P [6, 7]: 183.74
- Sphingoid base content, Sa1P [6, 7]: 69.57
- Sphingoid base content, Sphinganine (Sa) [6, 7]: 545.74
- Sphingoid base content, Sphingosine (SPN) [6, 7]: 2010.00
- S1P increase as compared with the normal control group ([6]; forebrain, Neuromide 100 mg/kg): ≥ 20%
- Sphingoid base content, S1P [6, 8]: 159.43 and 208.05
- Sphingoid base content, Sa1P [6, 8]: 69.16 and 69.98
- Sphingoid base content, Sphinganine (Sa) [6, 8]: 506.47 and 585.01
- Sphingoid base content, Sphingosine (SPN) [6, 8]: 1861.23 and 2158.78
